Experimental data published in US20090172831A1, “Methods for the production of plants resistant to HPPD herbicides” (Syngenta Limited, priority 2000, published 2009).
pKd: −log10 of the molar value.

Columns and labels:
[1] = target: Avena HPPD (Avena sativa, UniProt A0ACD5V6K6); assay: In vitro measurements of Avena HPPD (dissociation rate constants, Ki); format: binding; conditions: read-out: rate constants governing dissociation of the complexes
[2] = target: P. fluorescens HPPD (Pseudomonas fluorescens, UniProt A0ACG8AE61); assay: Dissociation of enzyme/inhibitor complexes by exchange with 14C-labelled inhibitor (koff; Kd = koff/kon); format: binding
P. fluorescens HPPD, sequence (A0ACG8AE61 entry or part of it): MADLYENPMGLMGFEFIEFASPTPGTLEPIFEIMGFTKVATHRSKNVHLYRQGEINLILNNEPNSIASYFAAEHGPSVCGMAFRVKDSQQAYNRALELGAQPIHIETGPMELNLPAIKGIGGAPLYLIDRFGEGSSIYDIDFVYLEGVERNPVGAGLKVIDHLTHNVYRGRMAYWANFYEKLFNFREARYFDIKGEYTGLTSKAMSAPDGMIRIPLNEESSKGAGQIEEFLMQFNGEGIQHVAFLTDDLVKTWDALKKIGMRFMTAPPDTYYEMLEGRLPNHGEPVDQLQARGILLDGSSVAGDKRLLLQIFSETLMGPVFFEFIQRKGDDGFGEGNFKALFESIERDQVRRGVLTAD
Excerpt: (§1) Herbicidal inhibitors of HPPD are found here to have generally low values of koff (in the range less than 0.0003 s^−1, often less than 0.000001 s^−1). It will be appreciated that many suitable methods known in the art for determining such low koff values are suitable for working the current invention. These include measuring rates of exchange of radio or otherwise labelled inhibitors either with or away from the enzyme inhibitor complex. For example enzyme inhibitor complexes can readily be prepared by incubating HPPD preparations with labelled or unlabelled inhibitor and then, after suitable periods, optionally rapidly separating the thus formed enzyme inhibitor complex from excess inhibitor by any suitable method such as ultrafiltration, binding to filters or exchange down a gel filtration column. Exchange reactions with the, thus prepared enzyme inhibitor complex is then initiated by addition of, as appropriate, excess labelled or unlabelled inhibitor. HPPD preparations suitable for use in the methods of the current invention are relatively unpurified, buffer-exchanged, supernatant fractions of spun crude lysates of E. coli strains engineered to express the HPPD enzyme of interest at a level of, typically, about 0.25-10% of the total soluble protein. Many methods such as radiometric, fluorimetric, NMR, fluorescence depolarisation, EPR, Mossbauer, UV/VIS spectrophotometry etc. or phonon resonance can, in principle, be used to monitor the enzyme/ligand exchange reactions and, particularly in this case where the enzyme contains an iron atom at the ligand binding site. Optionally, the monitoring method may be continuous (as, for example, with scintillation proximity/bead-based methods) or, discontinuous, based upon collection of data at various timepoints wherein samples are removed and the bound and unbound label components rapidly separated and quantitated.
Values of koff can suitably be calculated by computer fitting based upon is numerical integration of the exchange data along with information on the active-site concentration of HPPD and upon kon values obtained as described below. […] In any event, koff values are always here calculated from the rate of the major slow exchange reaction. It will be appreciated that within the scope of the current invention many methods of making the desired kinetic comparisons are possible without explicit or rigorous determination of off rates but, based upon the same underlying principle, will achieve the same selection result. […]
Not all test inhibitors are readily available in a radiolabelled form. A more general method of measuring off rates is to first form the complex with unlabelled test inhibitor, to rapidly exchange the complex free of excess unlabelled inhibitor and to then start the exchange reaction by addition of an excess of a standard labelled inhibitor, the kinetic properties of which are already known. The reaction is then monitored and the relative proportions of bound and unbound label determined at various times. […] The latter is the method of choice when the rate of exchange is fast (t½<3 h).
In, variants of the above methods, off rates are measured either in the presence or absence of ˜25% v/v glycerol. In the presence of glycerol values obtained are generally ˜1.5-3× slower than in its absence although sometimes the change is outside this range or, even, in the other direction. Further examples of data obtained are depicted in the following Table 3.
Crude Extracts of recombinant E. coli strains expressing, in the one case, a control HPPD (from Arabidopsis) and, in the other, one or more test HPPD sequences are prepared as described in the preceding example. The titre of active sites and enzyme activity are also defined and measured as described in the preceding examples. […]

[3] = target: T1, Arabidopsis HPPD (Arabidopsis thaliana, UniProt P93836); assay: as above; format: binding
T1 construct: made in house; host or cells: E. coli BL21 (DE3) codon+ RP
T1 sequence (P93836 1-445): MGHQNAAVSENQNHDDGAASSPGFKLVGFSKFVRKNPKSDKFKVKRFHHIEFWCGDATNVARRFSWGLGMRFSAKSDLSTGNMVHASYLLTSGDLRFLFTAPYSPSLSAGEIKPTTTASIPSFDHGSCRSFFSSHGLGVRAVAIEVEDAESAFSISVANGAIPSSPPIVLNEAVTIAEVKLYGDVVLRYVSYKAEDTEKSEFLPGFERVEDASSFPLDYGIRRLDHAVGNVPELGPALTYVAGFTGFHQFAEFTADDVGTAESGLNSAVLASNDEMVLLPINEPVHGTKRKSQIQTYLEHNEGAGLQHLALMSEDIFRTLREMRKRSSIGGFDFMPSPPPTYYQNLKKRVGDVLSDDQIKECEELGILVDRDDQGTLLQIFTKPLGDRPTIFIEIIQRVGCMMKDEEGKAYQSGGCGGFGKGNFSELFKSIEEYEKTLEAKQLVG
Experimental: as §1, with “It” for “Herbicidal inhibitors of HPPD are found here to have generally low values of koff (in the range less than 0.0003 s^−1, often less than 0.000001 s^−1). It”, “HPPD preparations suitable for use in the methods of the current invention are relatively unpurified, buffer-exchanged, supernatant fractions of spun crude lysates of E. coli strains engineered to express the HPPD enzyme of interest at a level of, typically, about 0.25-10% of the total soluble protein.” left out
Values of koff can suitably be calculated by computer fitting based upon is numerical integration of the exchange data along with information on the active-site concentration of HPPD and upon kon values obtained as described below. […] In any event, koff values are always here calculated from the rate of the major slow exchange reaction.
^14C mesotrione is of specific activity 1.12 GBq/mmol. […] Following this initial binding reaction, exchange reactions are initiated by addition of cold mesotrione to a final concentration of 60 μM and 200 μl aliquots removed at various times to rapid chromatography down a NAP5 gel filtration column equilibrated in 50 mM BTP at pH 7 containing 0.1 M KCl, separation into fractions containing protein-bound or free radiolabel and liquid scintillation counting.
Nevertheless, here, for practical purposes, koff values are always here calculated from the rate of the major slow exchange reaction.
Not all test inhibitors are readily available in a radiolabelled form.

[4] = target: Wheat HPPD (Triticum aestivum, UniProt A0A3B6NLC6); assay: as above; format: binding
Wheat HPPD, sequence (A0A3B6NLC6 entry or part of it): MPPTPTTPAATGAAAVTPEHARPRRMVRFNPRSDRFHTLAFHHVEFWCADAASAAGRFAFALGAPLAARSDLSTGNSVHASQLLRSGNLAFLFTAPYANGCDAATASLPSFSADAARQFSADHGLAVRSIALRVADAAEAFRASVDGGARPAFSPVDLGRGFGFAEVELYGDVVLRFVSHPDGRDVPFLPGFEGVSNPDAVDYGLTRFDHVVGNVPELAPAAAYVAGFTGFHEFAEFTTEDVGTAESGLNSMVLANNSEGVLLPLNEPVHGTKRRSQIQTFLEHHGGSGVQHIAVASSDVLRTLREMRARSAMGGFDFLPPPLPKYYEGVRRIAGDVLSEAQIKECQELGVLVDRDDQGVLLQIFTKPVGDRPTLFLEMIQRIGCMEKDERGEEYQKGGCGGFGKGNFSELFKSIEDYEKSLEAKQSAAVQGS
Excerpt: as §1
Values of koff can suitably be calculated by computer fitting based upon is numerical integration of the exchange data along with information on the active-site concentration of HPPD and upon kon values obtained as described below. […] In any event, koff values are always here calculated from the rate of the major slow exchange reaction. It will be appreciated that within the scope of the current invention many methods of making the desired kinetic comparisons are possible without explicit or rigorous determination of off rates but, based upon the same underlying principle, will achieve the same selection result.
The dissociation rates (off rates) of inhibitors selected from Formula 1 and/or 2 and/or 3 and/or 4 from the complexes that they form with test and control HPPD enzymes are suitably measured in a number of ways. Thus, for example, the rates of dissociation of mesotrione, a compound selected from Formula 1 and of the diketonitrile of isoxaflutole, a compound selected from Formula 3 from their respective complexes with, test, wheat HPPD and with, control, Arabidopsis HPPD are compared. The method and results from a typical test are as follows.
^14C mesotrione is of specific activity 1.12 GBq/mmol. This is ˜95% pure radiochemically by TLC and based upon the proportion of material tight-binding to HPPD. Arabidopsis and, (test), wheat HPPD are each diluted to a concentration of ˜0.45 and 0.54 μM, respectively into 1.6 ml of 50 mM Bis-Tris propane buffer at pH 7.0 containing 25% glycerol, 25 mM sodium ascorbate and 3 mg/l of bovine catalase (Sigma C3155˜50,000 units/mg) containing […] ^14C mesotrione and left to react at 25 C for 2.5-3 h. Following this initial binding reaction, exchange reactions are initiated by addition of cold mesotrione to a final concentration of 60 μM and 200 μl aliquots removed at various times to rapid chromatography down a NAP5 gel filtration column equilibrated in 50 mM BTP at pH 7 containing 0.1 M KCl, separation into fractions containing protein-bound or free radiolabel and liquid scintillation counting. […]

[5] = tested on: tobacco plants transformed with Avena sativa 4-HPPD gene; assay: Tolerance of tobacco transformed with Avena sativa HPPD to herbicides; conditions: in vivo
Excerpt: The structure of the resulting vector is shown schematically in FIG. 4.
The 4-HPPD plant expression cassette is then ligated in to the binary vector pBin19 restricted with Hind III and EcoRI and transformed into E. coli TOP10 cells (Invitrogen). This binary vector is then transformed into tobacco using methods well known in the art and, for example, as described elsewhere herein.

[6] = tested on: tobacco plants transformed to express wheat HPPD; assay: Tolerance of tobacco transformed with wheat HPPD to herbicides; format: in vivo; conditions: in vivo
Excerpt: These constructs were all transformed into Agrobacterium tumefaciens strain LBA4404, which in turn was used to transform tobacco, using methodology described previously.
Explants (i.e. a leaf plus short segment of stem containing the auxiliary bud) are placed into MS agar (+3% sucrose) containing various concentrations of mesotrione (see above) from 0.02 to 2 ppm.

[7] = tested on: tobacco plants transformed to express wheat HPPD; assay: Glasshouse spray test, visible damage; format: in vivo
Experimental: (§2) Plants are 1) untransformed tobacco plants variety Samsun expressing the endogenous tobacco (control) HPPD gene, 2) tobacco plants transformed to express Pseudomonas HPPD according to the examples herein and 3) tobacco plants transformed to express Wheat HPPD also according to the examples herein.
(§3) Large numbers of plants are grown from seed in small pots in the glasshouse to the 5-7 leaf seedling stage and sprayed with a range of doses, suitably from 0.0 to 2000 g/ha, of different HPPD-inhibitor herbicides selected from compounds of Formula 1, 2, 3 and 4. Treatments are suitably Formulated in, for example, deionised water+0.5% Turbocharge™ surfactant or, alternatively, 50% acetone/water and applied at […] to a dozen or more replicates of each line and at each spray rate (where the plants were T1 plants (selfed progeny of primary transformants) and still segregating at normally 1:2:1) or, where, homozygous, 3-6 plants. The extent of visible damage in terms of bleaching of meristems and leaves, eventual necrosis and stunting of growth relative to unsprayed controls is assessed at ˜1 and 3 weeks after treatment. Data from susceptible segregants are excluded from the analysis. In summary, results obtained are as follows.

[8] = tested on: untransformed tobacco plants variety Samsun; assay: Glasshouse spray test, visible damage; format: in vivo; conditions: spray 0.0 to 2000 g/ha, assessed ~1 and 3 weeks after treatment
Experimental: as §2, §3

Avena HPPD, sequence (A0ACD5V6K6 entry or part of it): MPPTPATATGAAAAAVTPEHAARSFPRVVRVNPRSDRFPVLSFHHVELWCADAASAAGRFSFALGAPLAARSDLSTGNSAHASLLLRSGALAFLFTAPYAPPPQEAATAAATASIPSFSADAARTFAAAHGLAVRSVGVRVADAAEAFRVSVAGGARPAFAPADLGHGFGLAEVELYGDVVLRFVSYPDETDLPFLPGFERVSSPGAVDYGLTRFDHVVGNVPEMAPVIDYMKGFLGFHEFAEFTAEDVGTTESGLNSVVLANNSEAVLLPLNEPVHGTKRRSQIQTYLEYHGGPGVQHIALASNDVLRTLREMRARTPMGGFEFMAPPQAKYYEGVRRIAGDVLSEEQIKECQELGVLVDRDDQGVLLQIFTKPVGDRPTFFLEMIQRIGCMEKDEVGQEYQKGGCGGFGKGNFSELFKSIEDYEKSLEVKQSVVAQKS

CC1(C)C(=O)C(C(=O)c2ccc(Cl)cc2[N+](=O)[O-])C(=O)C(C)(C)C1=O [Structure V, 2-[2-nitro-4-chlorobenzoyl]-4,4,6,6-tetramethylcyclohexane-1,3,5-trione]
koff [1]: < 4e-06 s⁻¹ | ratio Kd4/Kd1, structure V to structure I [2]: > 4.3 | pKd ([2]; without glycerol, Kd = koff/kon, read-out: Kd): < 8.82 | koff ([2]; − glycerol): > 0.0002 s⁻¹ | pKd [3]: 11.40 | ratio Kd4/Kd1, structure V to structure I [3]: 0.28 | koff ([3]; − glycerol): 1.25e-06 s⁻¹ | pKd ([4]; Kd, without glycerol, Kd = koff/kon): 10.96 | koff ([4]; − glycerol): 4.2e-06 s⁻¹

CS(=O)(=O)c1cc(C(F)(F)F)ccc1C(=O)c1cnoc1C1CC1 [isoxaflutole, 5-cyclopropyl-4-(2-methylsulphonyl-4-trifluoromethylbenzoyl)-isoxazole]
resistance of the transgenic plants compared with that to mesotrione [5]: substantially less resistant | resistance of the transgenic plants compared with that to mesotrione [6]: substantially less resistant | fold less susceptible of mesotrione than of the named herbicide [7]: 4-10 fold | fold more susceptible of the herbicide than of mesotrione [8]: 1-2 fold
